In brackets after ≈: the same amount, converted by molar mass. Read-outs that look alike come from different tables or passages of the source.

Common to all, as to test: In vitro antifungal activity (MIC), SGA agar plate, 27° C., 7 days
Assay [1] has as its system Trichophyton mentagrophytes IFO 5811. The class given is cell-based. The conditions noted are these: for MIC: Trichophyton mentagrophytes, IFO5811, 168 h, T. mentagrophytes IFO 5811, read-out: MIC value against Trichophyton. How it is done: (§1) In vitro antifungal activity of compounds against dormatophytes
Trichophyton mentagrophytes IFO 5811
(§2) Preparation of inoculation fungal solution:
(§3) To a strain cultured on Sabouraud's glucose agar (SGA) slant medium at 27° C. for 1 to 2 weeks was added 0.1% (v/v) Tween 80-added sterilized physiological saline solution, followed by rubbing with a platinum spatula. The resulting suspension of conidia was filtered through a sterilized gauze to eliminate mycelium mass. Thereafter, the conidia was counted by an erythrocytometer (Thoma) The suspension of the conidia was diluted with 0.1% (v/v) Tween 80-added sterilized physiological saline solution so as to have a concentration of 1×10^6 conidia/ml to obtain an inoculation fungal solution.
(§4) Each compound was dissolved into dimethyl sulfoxide (DMSO) to prepare a diluent having a […]. The concentration of DMSO in a medium was adjusted to hair 1% (v/v).
(§5) Measurement of antifungal activity:
(§6) A SGA plate medium containing a given amount of a compound (20 ml/dish) was prepared. A loopful of the inoculation fungal solution was applied in the form of a line to each plate medium at a length of about 15 mm, and was allowed to stand for cultivation at 27° C. for 7 days. The minimum inhibitory concentration (MIC) of the compound at which a growth of a microorganism cannot be visually recognized was determined.

Assay [2] deals with Trichophyton mentagrophytes TIMM 2789. The format is cell-based. The conditions noted are these: for MIC: Trichophyton mentagrophytes, TIMM2789, 168 h, T. mentagrophytes TIMM 2789, read-out: MIC value against Trichophyton. How it is done: as §1
Trichophyton mentagrophytes TIMM 2789
as §2, §3, §4, §5, §6

In assay [3] the test system is Trichophyton rubrum IFO 6204. The format is cell-based. The conditions noted are these: for MIC: Trichophyton rubrum, IFO6204, 168 h, T. rubrum IFO 6204, read-out: MIC value against Trichophyton. How it is done:
as §1
Trichophyton rubrunm IFO 6204
as §2, §3, §4, §5, §6

For the next assay, the system named is T. rubrum IFO 5805. The class given is cell-based, Trichophyton rubrum. To be noted: for MIC: Trichophyton rubrum, IFO5805, 168 h, read-out: MIC value against Trichophyton.

One may read the MIC as the least concentration at which growth counts as inhibited. Turning to `N#C/C(=C1/SC[C@@H](c2ccc(F)cc2)S1)n1ccnc1` [Compound No. 1, (R)-(E)-[4-(4-fluorophenyl)-1,3-dithicolan-2-ylidene]-1-imidazolylacetonitrile], the “MIC value against Trichophyton” value in assay [1] (T. mentagrophytes IFO 5811) was above 0.64 mg/L; in assay [2] (T. mentagrophytes TIMM 2789), 0.64 mg/L (≈ 2.11 µM); in assay [3] (T. rubrum IFO 6204), 0.32 mg/L (≈ 1.05 µM); in the assay on T. rubrum IFO 5805 it was 0.64 mg/L (≈ 2.11 µM). Also, the MIC in assay [1] came out at 0.64 mg/L (≈ 2.11 µM); in assay [2], 0.32 mg/L (≈ 1.05 µM); in assay [3], 0.16 mg/L (≈ 0.527 µM); with T. rubrum IFO 5805 it was 0.32 mg/L (≈ 1.05 µM).
For `N#C/C(=C1/SC[C@@H](c2cccc(Cl)c2)S1)n1ccnc1` [Compound No. 2], the “MIC value against Trichophyton” value was above 0.64 mg/L in assay [1] (T. mentagrophytes IFO 5811); above 0.64 mg/L in assay [2] (T. mentagrophytes TIMM 2789); 0.16 mg/L (≈ 0.5 µM) in assay [3] (T. rubrum IFO 6204); 0.64 mg/L (≈ 2 µM) in assay [3] (T. rubrum IFO 6204, listed as 2'); above 0.64 mg/L against T. rubrum IFO 5805. Also, the MIC in assay [1] was 0.64 mg/L (≈ 2 µM); in assay [2], 0.32 mg/L (≈ 1 µM); in the assay with T. rubrum IFO 5805, 0.64 mg/L (≈ 2 µM).
Turning to `N#C/C(=C1/SC[C@@H](c2ccc(Br)cc2)S1)n1ccnc1` [compound 3], the MIC in assay [1] is above 0.08 mg/L; in assay [2], above 0.08 mg/L; in assay [3], 0.08 mg/L (≈ 0.22 µM); in the assay on T. rubrum IFO 5805, above 0.08 mg/L. For the same molecule, the “MIC value against Trichophyton” value in assay [3] (T. rubrum IFO 6204) is above 0.08 mg/L.
For `N#C/C(=C1/SC[C@@H](c2ccc(Cl)cc2)S1)n1ccnc1` [compound 4], the MIC in assay [1] is above 0.08 mg/L; in assay [2], above 0.08 mg/L; in assay [3], 0.08 mg/L (≈ 0.25 µM); in the assay on T. rubrum IFO 5805, above 0.08 mg/L. The “MIC value against Trichophyton” value in assay [3] (T. rubrum IFO 6204) is above 0.08 mg/L.
Take `N#C/C(=C1/SC[C@@H](c2ccccc2F)S1)n1ccnc1` [compound 5]: the “MIC value against Trichophyton” value was 0.16 mg/L (≈ 0.527 µM) in assay [1] (T. mentagrophytes IFO 5811) and 0.04 mg/L (≈ 0.132 µM) in assay [2] (T. mentagrophytes TIMM 2789). In addition, the MIC in assay [1] stood at 0.08 mg/L (≈ 0.264 µM); in assay [2], 0.02 mg/L (≈ 0.0659 µM); in assay [3] it was 0.01 mg/L (≈ 0.033 µM); in the assay with T. rubrum IFO 5805 it was 0.04 mg/L (≈ 0.132 µM).
As for `Cc1ccccc1[C@@H]1CS/C(=C(/C#N)n2ccnc2)S1` [compound 6], the minimum inhibitory concentration (MIC) in assay [1] was 0.32 mg/L (≈ 1.07 µM); in assay [3] it was 0.08 mg/L (≈ 0.267 µM); in the assay on T. rubrum IFO 5805 it was 0.16 mg/L (≈ 0.534 µM). The “MIC value against Trichophyton” value in assay [2] (T. mentagrophytes TIMM 2789) was found to be 0.08 mg/L (≈ 0.267 µM); in assay [2] (T. mentagrophytes TIMM 2789, listed as 6') it was 0.32 mg/L (≈ 1.07 µM); with T. rubrum IFO 5805, 0.32 mg/L (≈ 1.07 µM).
In the case of `N#C/C(=C1/SC[C@@H](c2ccc(F)cc2F)S1)n1ccnc1` [compound 7], the “MIC value against Trichophyton” value in assay [1] (T. mentagrophytes IFO 5811) came out at 0.32 mg/L (≈ 0.996 µM); in assay [2] (T. mentagrophytes TIMM 2789) it was 0.08 mg/L (≈ 0.249 µM); in assay [3] (T. rubrum IFO 6204), 0.04 mg/L (≈ 0.124 µM); against T. rubrum IFO 5805, 0.16 mg/L (≈ 0.498 µM). For the same molecule, the MIC in assay [1] came out at 0.16 mg/L (≈ 0.498 µM); in assay [2], 0.04 mg/L (≈ 0.124 µM); in assay [3], 0.02 mg/L (≈ 0.0622 µM); in the assay with T. rubrum IFO 5805, 0.08 mg/L (≈ 0.249 µM).
Regarding `N#C/C(=C1/SC[C@@H](c2ccccc2Br)S1)n1ccnc1` [compound 8], the “MIC value against Trichophyton” value is 0.04 mg/L (≈ 0.11 µM) in assay [1] (T. mentagrophytes IFO 5811); 0.16 mg/L (≈ 0.439 µM) in assay [1] (T. mentagrophytes IFO 5811, listed as 8'); 0.04 mg/L (≈ 0.11 µM) in assay [2] (T. mentagrophytes TIMM 2789); 0.02 mg/L (≈ 0.0549 µM) in assay [3] (T. rubrum IFO 6204); 0.01 mg/L (≈ 0.0275 µM) in the assay on T. rubrum IFO 5805; 0.04 mg/L (≈ 0.11 µM) with T. rubrum IFO 5805 (listed as 8'). Further, the minimum inhibitory concentration (MIC) was found to be 0.02 mg/L (≈ 0.0549 µM) in assay [2] and 0.01 mg/L (≈ 0.0275 µM) in assay [3].
In the case of `N#C/C(=C1/SC[C@@H](c2ccccc2OC(F)F)S1)n1ccnc1` [compound 9], the “MIC value against Trichophyton” value in assay [1] (T. mentagrophytes IFO 5811) turned out to be 2.56 mg/L (≈ 7.29 µM); in assay [2] (T. mentagrophytes TIMM 2789) it was 1.28 mg/L (≈ 3.64 µM); in assay [3] (T. rubrum IFO 6204), 0.64 mg/L (≈ 1.82 µM); with T. rubrum IFO 5805 it was 0.64 mg/L (≈ 1.82 µM). For the same molecule, the MIC in assay [1] came to 1.28 mg/L (≈ 3.64 µM); in assay [2], 0.64 mg/L (≈ 1.82 µM); in assay [3] it was 0.32 mg/L (≈ 0.911 µM); in the assay on T. rubrum IFO 5805, 0.32 mg/L (≈ 0.911 µM).
For the molecule `N#C/C(=C1/SC[C@@H](c2ccccc2C(F)(F)F)S1)n1ccnc1` [compound 10], the “MIC value against Trichophyton” value is 0.64 mg/L (≈ 1.81 µM) in assay [1] (T. mentagrophytes IFO 5811), 0.32 mg/L (≈ 0.906 µM) in assay [2] (T. mentagrophytes TIMM 2789), 0.08 mg/L (≈ 0.226 µM) in assay [3] (T. rubrum IFO 6204) and 0.08 mg/L (≈ 0.226 µM) against T. rubrum IFO 5805. Also, the MIC in assay [1] worked out at 0.32 mg/L (≈ 0.906 µM); in assay [2], 0.16 mg/L (≈ 0.453 µM); in assay [3], 0.04 mg/L (≈ 0.113 µM); in the assay with T. rubrum IFO 5805 it was 0.04 mg/L (≈ 0.113 µM).
Turning to `N#C/C(=C1/SC[C@@H](c2ccc(Br)cc2Br)S1)n1ccnc1` [compound 11], the MIC in assay [1] came to 0.04 mg/L (≈ 0.0903 µM); in assay [2] it was 0.02 mg/L (≈ 0.0451 µM); in assay [3], 0.01 mg/L (≈ 0.0226 µM); in the assay with T. rubrum IFO 5805, 0.02 mg/L (≈ 0.0451 µM). For the same molecule, the “MIC value against Trichophyton” value in assay [3] (T. rubrum IFO 6204) was determined as 0.02 mg/L (≈ 0.0451 µM); against T. rubrum IFO 5805, 0.04 mg/L (≈ 0.0903 µM).
As to `N#C/C(=C1/SC[C@@H](c2ccc(F)cc2Cl)S1)n1ccnc1` [compound 12], the “MIC value against Trichophyton” value turned out to be 0.04 mg/L (≈ 0.118 µM) in assay [1] (T. mentagrophytes IFO 5811); 0.16 mg/L (≈ 0.474 µM) in assay [1] (T. mentagrophytes IFO 5811, listed as 12'); 0.04 mg/L (≈ 0.118 µM) in assay [2] (T. mentagrophytes TIMM 2789); 0.04 mg/L (≈ 0.118 µM) in assay [3] (T. rubrum IFO 6204); 0.04 mg/L (≈ 0.118 µM) with T. rubrum IFO 5805. Besides, the MIC (in assay [2]; in assay [3]; with T. rubrum IFO 5805) was 0.02 mg/L (≈ 0.0592 µM) in each case.
For the molecule `N#C/C(=C1/SC[C@@H](c2ccc(Br)cc2Cl)S1)n1ccnc1` [compound 13, (R)-(E)-[4-(2-chloro-4-bromophenyl) -1,3-dithiolan-2-ylidene]-1-imidazolylacetonitrile], the “MIC value against Trichophyton” value came to 0.04 mg/L (≈ 0.1 µM) in assay [1] (T. mentagrophytes IFO 5811), 0.02 mg/L (≈ 0.0502 µM) in assay [2] (T. mentagrophytes TIMM 2789), 0.02 mg/L (≈ 0.0502 µM) in assay [3] (T. rubrum IFO 6204) and 0.02 mg/L (≈ 0.0502 µM) against T. rubrum IFO 5805. The MIC in assay [1] came out at 0.02 mg/L (≈ 0.0502 µM); in assay [2], 0.01 mg/L (≈ 0.0251 µM); in assay [3], 0.01 mg/L (≈ 0.0251 µM); in the assay on T. rubrum IFO 5805, 0.01 mg/L (≈ 0.0251 µM).

(Values after patent US6127397A, “Optically active (R)-(E)-(4-substituted-phenyl-1,3-dithiolan-2-ylidene)-1-imidazolylaceto nitrile derivative, antifungal composition comprising the same, and method for producing the same” (Nihon Nohyaku Co., Ltd., priority 1996, dated 2000).)
